Assay results taken from patent US8293781B2, “Indole derivatives having cPLA2 inhibiting activity and applications and production methods of the same” (Daiichi Sankyo Company, Limited, priority 2007, dated 2012).
Structures can show the parent of a compound that is named as a salt.

Molecular target: T1, cPLA2 crudely purified from the cytoplasm fraction of U937 (Homo sapiens, UniProt P47712)
T1 construct: cPLA2 crudely purified from the cytoplasm fraction of U937; endogenous in cells; host or cells: U937 cells (cytoplasm fraction, crude purification)
T1 sequence (P47712 1-749): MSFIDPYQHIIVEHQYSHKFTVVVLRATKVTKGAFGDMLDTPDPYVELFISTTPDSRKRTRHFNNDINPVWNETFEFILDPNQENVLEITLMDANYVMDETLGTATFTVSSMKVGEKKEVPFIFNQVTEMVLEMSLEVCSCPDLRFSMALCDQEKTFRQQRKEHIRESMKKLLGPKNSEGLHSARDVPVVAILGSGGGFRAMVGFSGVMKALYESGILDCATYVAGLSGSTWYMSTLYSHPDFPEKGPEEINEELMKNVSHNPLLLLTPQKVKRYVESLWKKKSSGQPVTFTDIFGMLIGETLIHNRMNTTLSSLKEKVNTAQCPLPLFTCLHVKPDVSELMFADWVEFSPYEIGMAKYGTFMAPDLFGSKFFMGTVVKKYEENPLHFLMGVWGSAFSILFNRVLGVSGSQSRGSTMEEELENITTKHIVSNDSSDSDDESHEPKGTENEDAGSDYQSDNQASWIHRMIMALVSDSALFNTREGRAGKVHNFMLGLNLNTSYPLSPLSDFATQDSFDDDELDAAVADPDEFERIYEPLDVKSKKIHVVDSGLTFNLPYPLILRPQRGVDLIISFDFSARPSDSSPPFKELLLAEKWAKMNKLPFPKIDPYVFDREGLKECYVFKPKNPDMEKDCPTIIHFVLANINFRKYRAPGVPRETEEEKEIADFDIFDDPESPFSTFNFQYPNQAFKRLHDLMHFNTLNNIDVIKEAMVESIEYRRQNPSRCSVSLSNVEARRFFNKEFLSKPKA
Test: Measurement of cPLA2 inhibitory activity (release of [14C]-arachidonic acid from phosphatidyl choline liposome)
Format: biochemical
Conditions: cPLA2 from U937 cytoplasm fraction, [14C]arachidonyl-phosphatidyl choline liposome, 37° C., 60 minutes; read-out: cPLA2 inhibitory activity, 50% inhibiting concentration IC50
Description: The cPLA2 inhibitory activity was measured based on the method described in the document [See H. Naraba et al., J. Immunol. 160, 2974-2982 (1998)] and modified in the following way.
A DMSO solution of the present invitation compounds was diluted to 2.5 times the final concentration with the assay buffer (4 mM CaCl2, 2 mM dithiothreitol, 150 mM NaCl, 50 mM HEPES buffer solution (pH7.5)) containing 0.55 mg/ml BSA. To 20 μl of this, cPLA2 crudely purified from the cytoplasm fraction of U937 was added in an amount of 10 μl after dilution by an assay buffer solution containing 0.55 mg/ml BSA. A liposome prepared by ultrasonically treating L-α-1-palmitoyl-2-[14C]arachidonyl-phosphatidyl choline (made by PerkinElmer) and adjusted by the assay buffer solution to a concentration of phosphatidyl choline of 10 μM was added and stirred in by an amount of 20 μl and the mixture was reacted at 37° C. for 60 minutes. The [^14C]-arachidonic acid released due to the reaction was extracted based on the method described in the documents [see V. P. Dole et al., J. Biol. Chem. 235, 2595 (1960)], was added to Lumaplate® (made by PerkinElmer), dried, then measured by Topcount® (made by PerkinElmer). Except for not adding the present invention compounds, the same procedure was performed as the above to obtain the enzyme control. Except for not adding the invention compounds and not adding the enzyme, the same procedure was followed as above to obtain a negative control. The inhibiting activity was expressed as a percent (%) of the value minus the negative control with respect to the value of the enzyme control minus the negative control. From this, the 50% inhibiting concentration (IC50, μM) was calculated.

| Compound | IC50 |
| --- | --- |
| O=C(CCc1ccc2c(c1)c(CCc1ccccc1)cn2-c1ccccc1)C(F)(F)F [Example 113, 1,1,1-trifluoro-4-[1-phenyl-3-(2-phenylethyl)-1H-indol-5-yl]butan-2-one] | 1150 nM |
| CCOc1ccc(-n2cc(CCc3ccccc3)c3cc(CCC(=O)N(C)OC)ccc32)cc1 [Example 116, 3-[1-(4-ethoxyphenyl)-3-(2-phenylethyl)-1H-indol-5-yl]-N-methoxy-N-methylpropanamide] | 2170 nM |
| CCOc1ccc(-n2cc(CCc3ccccc3)c3cc(CCC=O)ccc32)cc1 [Example 117] | 527 nM |
| O=C(O)CCc1ccc2c(c1)c(CCc1ccccc1)cn2-c1ccccn1 [Example 132, 3-[3-(2-phenylethyl)-1-(2-pyridinyl)-1H-indol-5-yl]propanoic acid hydrochloride] | 225 nM |
| O=C(O)CCc1ccc2c(c1)c(CCc1ccccc1)cn2-c1ccc([N+](=O)[O-])cn1 [Example 134, 3-[1-(5-nitro-2-pyridinyl)-3-(2-phenylethyl)-1H-indol-5-yl]propanoic acid hydrochloride] | 211 nM |
| Nc1ccc(-n2cc(CCc3ccccc3)c3cc(CCC(=O)O)ccc32)nc1 [Example 135, 3-[1-(5-amino-2-pyridinyl)-3-(2-phenylethyl)-1H-indol-5-yl]propanoic acid] | 277 nM |
| O=C(O)CCc1ccc2c(c1)c(CCc1ccccc1)cn2-c1ccccc1[N+](=O)[O-] [Example 149, 3-[1-(2-nitrophenyl)-3-(2-phenylethyl)-1H-indol-5-yl]propanoic acid] | 278 nM |
| Nc1ccccc1-n1cc(CCc2ccccc2)c2cc(CCC(=O)O)ccc21 [Example 151, 3-[1-(2-aminophen 1)-3-(2-phenylethyl)-1H-indol-5-yl]propanoic acid] | 185 nM |
| CC(=O)Nc1ccccc1-n1cc(CCc2ccccc2)c2cc(CCC(=O)O)ccc21 [Example 153, 3-{1-[2-(acetylamino)phenyl]-3-(2-phenylethyl)-1H-indol-5-yl}propanoic acid] | 7960 nM |
| O=C(O)CCc1ccc2c(c1)c(CCc1ccccc1)cn2-c1cccc(OCc2ccccc2)c1 [Example 155, 3-{1-[3-(benzyloxy)phenyl]-3-(2-phenylethyl)-1H-indol-5-yl}propanoic acid 2-amino-2-(hydroxymethyl)propane-1,3-diol salt (1:1)] | 208 nM |
| CCOc1cccc(-n2cc(CCc3ccccc3)c3cc(CCC(=O)O)ccc32)c1 [Example 159, 3-[1-(3-ethoxyphenyl)-3-(2-phenylethyl)-1H-indol-5-yl]propanoic acid] | 515 nM |
| CCCOc1cccc(-n2cc(CCc3ccccc3)c3cc(CCC(=O)O)ccc32)c1 [Example 161, 3-[3-(2-phenylethyl)-1-(3-propoxyphenyl)-1H-indol-5-yl]propanoic acid] | 813 nM |
| CC(C)Oc1cccc(-n2cc(CCc3ccccc3)c3cc(CCC(=O)O)ccc32)c1 [Example 163, 3-[1-(3-isopropoxyphenyl)-3-(2-phenylethyl)-1H-indol-5-yl]propanoic acid] | 1750 nM |
| O=C(O)CCc1ccc2c(c1)c(CCc1ccccc1)cn2-c1cccc([N+](=O)[O-])c1 [Example 165, 3-[1-(3-nitrophenyl)-3-(2-phenylethyl)-1H-indol-5-yl]propanoic acid] | 154 nM |
| CC(=O)Nc1cccc(-n2cc(CCc3ccccc3)c3cc(CCC(=O)O)ccc32)c1 [Example 169, 3-{1-[3-(acetylamino)phenyl]-3-(2-phenylethyl)-1H-indol-5-yl}propanoic acid] | 205 nM |
| CC(C)(C)C(=O)Nc1cccc(-n2cc(CCc3ccccc3)c3cc(CCC(=O)O)ccc32)c1 [Example 171, 3-[1-{3-[(2,2-dimethylpropanoyl)amino]phenyl}-3-(2-phenylethyl)-1H-indol-5-yl]propanoic acid] | 210 nM |
| N#Cc1cccc(-n2cc(CCc3ccccc3)c3cc(CCC(=O)O)ccc32)c1 [Example 173, 3-[1-(3-cyanophenyl)-3-(2-phenylethyl)-1H-indol-5-yl]propanoic acid] | 259 nM |
| O=Cc1cccc(-n2cc(CCc3ccccc3)c3cc(CCC(=O)O)ccc32)c1 [Example 175, 3-[1-(3-formylphenyl)-3-(2-phenylethyl)-1H-indol-5-yl]propanoic acid] | 143 nM |
| O=C(O)CCc1ccc2c(c1)c(CCc1ccccc1)cn2-c1cccc(C(=O)O)c1 [Example 177, 3-[5-(2-carboxyethyl)-3-(2-phenylethyl)-1H-indol-1-yl]benzoic acid] | 2520 nM |
| CN(C)c1cccc(-n2cc(CCc3ccccc3)c3cc(CCC(=O)O)ccc32)c1 [Example 179, 3-{1-[3-(dimethylamino)phenyl]-3-(2-phenylethyl)-1H-indol-5-yl}propanoic acid] | 182 nM |
| O=C(O)CCc1ccc2c(c1)c(CCc1ccccc1)cn2-c1cccc(OC(F)F)c1 [Example 185, 3-{1-[3-(difluoromethoxy)phenyl]-3-(2-phenylethyl)-1H-indol-5-yl}propanoic acid] | 278 nM |

These reach a lower IC50. Values come first.

| IC50 | Compound |
| --- | --- |
| 15 nM | CCOc1ccc(-n2cc(CCc3ccccc3)c3cc(CCC(=O)O)ccc32)cc1 [Example 112, 3-[1-(4-ethoxyphenyl)-3-(2-phenylethyl)-1H-indol-5-yl]propanoic acid 2-amino-2-(hydroxymethyl)propane-1,3-diol salt (1:1)] |
| 7 nM | CCCOc1ccc(-n2cc(CCc3ccccc3)c3cc(CCC(=O)O)ccc32)cc1 [Example 119, 3-[3-(2-phenylethyl)-1-(4-propoxyphenyl)-1H-indol-5-yl]propanoic acid] |
| 7 nM | CC(C)Oc1ccc(-n2cc(CCc3ccccc3)c3cc(CCC(=O)O)ccc32)cc1 [Example 121, 3-[1-(4-isopropoxyphenyl)-3-(2-phenylethyl)-1H-indol-5-yl]propanoic acid] |
| 113 nM | COc1ccc(-n2cc(CCc3ccccc3)c3cc(CCC(=O)O)ccc32)cn1 [Example 130, 3-[1-(6-methoxy-3-pyridinyl)-3-(2-phenylethyl)-1H-indol-5-yl]propanoic acid] |
| 117 nM | CC(=O)Nc1ccc(-n2cc(CCc3ccccc3)c3cc(CCC(=O)O)ccc32)nc1 [Example 140, 3-{1-[5-(acetylamino)-2-pyridinyl]-3-(2-phenylethyl)-1H-indol-5-yl}propanoic acid] |
| 42 nM | O=C(O)/C=C/c1ccc2c(c1)c(CCc1ccccc1)cn2-c1ccc(OCc2ccccc2)cc1 [Example 144, (2E)-3-{1-[4-(benzyloxy)phenyl]-3-(2-phenylethyl)-1H-indol-5-yl}-2-propenoic acid] |
| 49 nM | Nc1cccc(-n2cc(CCc3ccccc3)c3cc(CCC(=O)O)ccc32)c1 [Example 167, 3-[1-(3-aminophenyl)-3-(2-phenylethyl)-1H-indol-5-yl]propanoic acid] |
| 138 nM | O=C(O)CCc1ccc2c(c1)c(CCc1ccccc1)cn2-c1cccc(Cl)c1 [Example 181, 3-[1-(3-chlorophenyl)-3-(2-phenylethyl)-1H-indol-5-yl]propanoic acid] |
| 70 nM | O=C(O)CCc1ccc2c(c1)c(CCc1ccccc1)cn2-c1cccc(F)c1 [Example 183, 3-[1-(3-fluorophenyl)-3-(2-phenylethyl)-1H-indol-5-yl]propanoic acid] |
| 43 nM | O=C(O)CCc1ccc2c(c1)c(CCc1ccccc1)cn2-c1ccc(OC(F)F)cc1 [Example 189, 3-{1-[4-(difluoromethoxy)phenyl]-3-(2-phenylethyl)-1H-indol-5-yl}propanoic acid] |
| 66 nM | Nc1ccc(-n2cc(CCc3ccccc3)c3cc(CCC(=O)O)ccc32)cc1 [Example 196, 3-[1-(4-aminophenyl)-3-(2-phenylethyl)-1H-indol-5-yl]propanoic acid] |
